Measured values from ChEMBL document CHEMBL1158322, “New Terpenylated Dihydrochalcone Derivatives Isolated from Mitrella kentii” (J Nat Prod, 1997).
In brackets after ≈: the same amount, converted by molar mass.

tested on: NSCLC; assay: Cytotoxicity against human NSCLC cells by MTT assay; type: functional, cell-based

Compound	IC50
CC1=C[C@H](c2c(O)cc(O)c(C(=O)CCc3ccccc3)c2O)[C@@H](C(C)C)CC1	> 30 µg/mL
CC1=C[C@H](c2c(O)c(C(=O)CCc3ccccc3)c(O)c([C@H]3C=C(C)CC[C@@H]3C(C)C)c2O)[C@@H](C(C)C)CC1	> 30 µg/mL
CC1=C[C@H](c2c(O)cc(O)c(C(=O)CCc3ccccc3)c2O)[C@H](C(C)C)CC1 [LINDERATIN]	3.8 µg/mL (≈ 9.63 µM)
CC1=C[C@H](c2c(O)c(C(=O)CCc3ccccc3)c(O)c([C@H]3C=C(C)CC[C@H]3C(C)C)c2O)[C@H](C(C)C)CC1 [NEOLINDERATIN]	> 30 µg/mL
